Experimental data published in PubChem BioAssay AID1845206 (Molecular Pharmacology Branch, DTP, NCI, 2023).

Test system: NCI-H1618 multicellular tumor spheroid viability
Assay: Anticancer human tumor NCI-H1618 cell line growth inhibition;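 note: spheroids exposed to agents for 7 days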
Settings: for IC50: curve of first compound; for viability, T/C: stronger effect = lower value; active = viability on the fitted dose curve at most 10% of control; inactive = the rest
From the text: Multicellular complex tumor spheroid response to DNA repair inhibitors in combination with DNA-damaging drugs
This study explores the anticancer activities of DNA-damaging drugs and inhibitors of DNA damage repair, both as single agents and in combinations. Complex tumor spheroids comprised of malignant cells, endothelial cells and mesenchymal stem cells served as an in vitro model for human solid tumors. This model system incorporates physiologically relevant features and patient-derived or established malignant cell lines with clinically relevant genetic alterations from many tumor types. Twenty-six patient-derived or established malignant cell lines were evaluated representing sarcoma, melanoma, small cell lung cancer (SCLC), non-small cell lung cancer (NSCLC), as well as bladder, ovarian and pancreatic cancers. The concentration ranges selected for each drug and investigational agent were based upon clinically achievable concentrations if the clinical Cmax of the agent was known.
Compounds. The drugs and compounds olaparib (NSC753686), talazoparib (NSC767125), berzosertib (NSC777718), elimusertib (NSC800525), nedisertib (NSC802822), VX-984 (NSC792969), AZD-1390 (NSC803789), temozolomide (NSC362856), topotecan (NSC609699), trabectedin (NSC813783), staurosporine (NSC755774), and gemcitabine (NSC613327) were obtained from the National Cancer Institute (NCI) Developmental Therapeutics Program Chemical Repository. The FDA-approved anticancer drug set is available from the Developmental Therapeutics Program at https://dtp.cancer.gov/organization/dscb/obtaining/available_plates.htm. […] The stock solutions were prepared in dimethyl sulfoxide (DMSO, Sigma-Aldrich, St. Louis, MO, cat. D2650) at 400-fold the tested concentration and stored at -70 degrees C. Prior to their use, the stock solutions were diluted in fresh medium and the final DMSO concentration in the assay was 0.25% (v/v). All drugs and investigational agents were tested over a range starting from a high concentration at or near the clinical Cmax and decreasing in half-log increments. If the clinical Cmax for an agent had not been determined, the highest concentration tested was 10 microM.
Cell Lines. The patient-derived cancer cell (PDC) lines: 156681-154-R-J1-PDC, 283228-195-R-J1-PDC, 287954-098-R-J1-PDC, 292921-168-R-J2-PDC, 349418-098-R-PDC, 425362-245-T-J1-PDC, 556581-035-R-J1-PDC, and BL0293-F563-PDC were received from the NCI Patient-Derived Models Repository (PDMR, https://pdmr.cancer.gov). The established cell lines HS-SY-2 (RRID:CVCL_8719), MPNST, and SYO-1 (RRID:CVCL_7146) were obtained from the Sloan Kettering Institute. The alveolar soft parts sarcoma cell line ASPS-1 (RRID:CVCL_S738) was established at the NCI and grown from internal seed stocks. The following established cell lines were purchased from the American Type Culture Collection (ATCC, Manassas, VA): G-401 (ATCC, cat. CRL-1441, RRID:CVCL_0270), SW982 (ATCC, cat. HTB-93, RRID:CVCL_1734), VA-ES-BJ (ATCC, cat. CRL-2138, RRID:CVCL_1785), NCI-H719 (ATCC, cat. CRL-5837, RRID:CVCL_1582), NCI-H196 (ATCC, cat. CRL-5823, RRID:CVCL_1509), NCI-H841 (ATCC, cat. CRL-5845, RRID:CVCL_1595), NCI-H1618 (ATCC, cat. CRL-5879, RRID:CVCL_1480), NCI-H1876 (ATCC, cat. CRL-5902, RRID:CVCL_1503), DMS 114 (ATCC, cat. CRL-2066; RRID:CVCL_1174), NCI-H211 (ATCC, cat. CRL-5824; RRID:CVCL_1529), and SW 1271 (ATCC, cat. CRL-2177, RRID:CVCL_1716). The small cell lung cancer cell line COR-L88 was purchased from Sigma-Aldrich (cat. 92031917-1VL, RRID:CVCL_1141). The non-small cell lung cancer cell lines NCI-H226 (RRID:CVCL_1544) and NCI-H322M (RRID:CVCL_1557) were established at the NCI and grown from internal seed stocks. Pooled donor human umbilical vein endothelial cells (HUVEC, Lonza, cat. CC-2519) and human mesenchymal stem cells (hMSC, Lonza, cat. PT-2501) were purchased from Lonza (Walkersville, MD).
Cell Culture. All cells were maintained in an incubator at 37 degrees C and 5% CO2 with 95% humidity. […]

Cc1cc(C)c(CNC(=O)c2cc(-c3ccc(CN4CCOCC4)cc3)cc3c2cnn3C2CCCC2)c(=O)[nH]1 + CC[C@@]1(O)C(=O)OCc2c1cc1n(c2=O)Cc2cc3c(CN(C)C)c(O)ccc3nc2-1
active: viability, T/C (second compound 0.03 µM, first compound 0.0316 µM) 1.8% | viability, T/C (second compound 0.03 µM, first compound 0.1 µM) 1.58% | viability, T/C (second compound 0.03 µM, first compound 0.316 µM) 1.81% | viability, T/C (second compound 0.03 µM, first compound 1 µM) 1.82% | viability, T/C (second compound 0.03 µM, first compound 3.16 µM) 1.84% | viability, T/C (second compound 0.03 µM, first compound 10 µM) 18.6% | viability, T/C (second compound 0.0949 µM, first compound 0.0316 µM) 1.32% | viability, T/C (second compound 0.0949 µM, first compound 0.1 µM) 1.44% | viability, T/C (second compound 0.0949 µM, first compound 0.316 µM) 1.43% | viability, T/C (second compound 0.0949 µM, first compound 1 µM) 2.27% | viability, T/C (second compound 0.0949 µM, first compound 3.16 µM) 1.46% | viability, T/C (second compound 0.0949 µM, first compound 10 µM) 2.04% | viability, T/C (second compound 0.3 µM, first compound 0.1 µM) 1.25% | viability, T/C (second compound 0.3 µM, first compound 0.316 µM) 1.16% | viability, T/C (second compound 0.3 µM, first compound 1 µM) 1.34% | viability, T/C (second compound 0.3 µM, first compound 3.16 µM) 1.57% | viability, T/C (second compound 0.3 µM, first compound 10 µM) 19.7%
< 0.0316 µM: IC50 (second compound 0.00949 µM) | IC50 (second compound 0.03 µM) | IC50 (second compound 0.0949 µM) | IC50 (second compound 0.3 µM)
inactive: viability, T/C (second compound 0.003 µM, first compound 0.0316 µM) 90.8% | viability, T/C (second compound 0.003 µM, first compound 0.1 µM) 94.2% | viability, T/C (second compound 0.003 µM, first compound 0.316 µM) 94.5% | viability, T/C (second compound 0.003 µM, first compound 1 µM) 88.5% | viability, T/C (second compound 0.003 µM, first compound 3.16 µM) 83.1% | viability, T/C (second compound 0.003 µM, first compound 10 µM) 76.2% | viability, T/C (second compound 0.00949 µM, first compound 0.0316 µM) 58.5% | viability, T/C (second compound 0.00949 µM, first compound 0.1 µM) 38.5% | viability, T/C (second compound 0.00949 µM, first compound 0.316 µM) 51% | viability, T/C (second compound 0.00949 µM, first compound 1 µM) 27.2% | viability, T/C (second compound 0.00949 µM, first compound 3.16 µM) 17.3% | viability, T/C (second compound 0.00949 µM, first compound 10 µM) 12.7% | viability, T/C (second compound 0.3 µM, first compound 0.0316 µM) 19.2%
> 10 µM: IC50 (second compound 0.003 µM)

Cc1sc2c(c1C)C(c1ccc(Cl)cc1)=NC(CC(=O)Nc1ccc(O)cc1)c1nnc(C)n1-2 (stereo not given) + CC[C@@]1(O)C(=O)OCc2c1cc1n(c2=O)Cc2cc3c(CN(C)C)c(O)ccc3nc2-1
inactive: viability, T/C (second compound 0.003 µM, first compound 0.00949 µM) 96.6% | viability, T/C (second compound 0.003 µM, first compound 0.03 µM) 85.2% | viability, T/C (second compound 0.003 µM, first compound 0.0949 µM) 89.1% | viability, T/C (second compound 0.003 µM, first compound 0.3 µM) 61.3% | viability, T/C (second compound 0.003 µM, first compound 0.949 µM) 27.2% | viability, T/C (second compound 0.00949 µM, first compound 0.00949 µM) 55.5% | viability, T/C (second compound 0.00949 µM, first compound 0.03 µM) 21.2% | viability, T/C (second compound 0.00949 µM, first compound 0.0949 µM) 29.5%
< 0.00949 µM: IC50 (second compound 0.03 µM) | IC50 (second compound 0.0949 µM) | IC50 (second compound 0.3 µM)
0.011 µM: IC50 (second compound 0.00949 µM)
active: viability, T/C (second compound 0.003 µM, first compound 3 µM) 1.67% | viability, T/C (second compound 0.00949 µM, first compound 0.3 µM) 2.24% | viability, T/C (second compound 0.00949 µM, first compound 0.949 µM) 0.92% | viability, T/C (second compound 0.00949 µM, first compound 3 µM) 0.93% | viability, T/C (second compound 0.03 µM, first compound 0.00949 µM) 1.53% | viability, T/C (second compound 0.03 µM, first compound 0.03 µM) 17% | viability, T/C (second compound 0.03 µM, first compound 0.0949 µM) 1.42% | viability, T/C (second compound 0.03 µM, first compound 0.3 µM) 1.1% | viability, T/C (second compound 0.03 µM, first compound 0.949 µM) 0.9% | viability, T/C (second compound 0.03 µM, first compound 3 µM) 0.76% | viability, T/C (second compound 0.0949 µM, first compound 0.00949 µM) 1.43% | viability, T/C (second compound 0.0949 µM, first compound 0.03 µM) 1.5% | viability, T/C (second compound 0.0949 µM, first compound 0.0949 µM) 1.55% | viability, T/C (second compound 0.0949 µM, first compound 0.3 µM) 0.99% | viability, T/C (second compound 0.0949 µM, first compound 0.949 µM) 0.71% | viability, T/C (second compound 0.0949 µM, first compound 3 µM) 15.8% | viability, T/C (second compound 0.3 µM, first compound 0.00949 µM) 1.23% | viability, T/C (second compound 0.3 µM, first compound 0.03 µM) 1.1% | viability, T/C (second compound 0.3 µM, first compound 0.0949 µM) 0.98% | viability, T/C (second compound 0.3 µM, first compound 0.3 µM) 0.97% | viability, T/C (second compound 0.3 µM, first compound 0.949 µM) 0.73% | viability, T/C (second compound 0.3 µM, first compound 3 µM) 0.63%
0.453 µM: IC50 (second compound 0.003 µM)
